Measured values as given in patent US20230087118A1, “IMIDAZO[1,2-a][sequence] DERIVATIVES AND THEIR USE IN THE TREATMENT OF DISEASE” (priority 2019, published 2023).
Counter-ions that a name gives are not always drawn.

target: T1, IRAK4 (Homo sapiens, UniProt Q9NWZ3); assay: biochemical; conditions: not given
T1 sequence (Q9NWZ3 1-460): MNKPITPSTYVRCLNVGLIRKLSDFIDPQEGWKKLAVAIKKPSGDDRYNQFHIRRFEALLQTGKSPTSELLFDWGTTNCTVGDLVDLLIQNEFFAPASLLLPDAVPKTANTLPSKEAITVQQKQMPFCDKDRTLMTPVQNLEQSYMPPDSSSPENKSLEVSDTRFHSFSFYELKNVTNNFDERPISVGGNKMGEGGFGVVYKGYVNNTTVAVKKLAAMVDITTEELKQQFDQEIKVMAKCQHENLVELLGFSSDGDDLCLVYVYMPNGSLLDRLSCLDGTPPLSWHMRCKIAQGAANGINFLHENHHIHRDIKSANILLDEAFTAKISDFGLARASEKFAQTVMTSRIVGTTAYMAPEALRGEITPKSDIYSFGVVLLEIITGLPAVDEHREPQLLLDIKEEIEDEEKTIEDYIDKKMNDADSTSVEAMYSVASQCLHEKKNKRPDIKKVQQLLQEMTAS

Compared with `Cn1ccc(NC(=O)c2cn3cc(C45COC(C)(C4)C5)nc3c(OC3CCC3)n2)n1` [Example 346, 8-Cyclobutoxy-N-(1-methyl-1H-pyrazol-3-yl)-2-(1-methyl-2-oxabicyclo[2.1.1]hexan-4-yl)imidazo[1,2-a]pyrazine-6-carboxamide], `Cn1ccc(NC(=O)c2cn3cc([C@]45CC[C@](C)(C4)OC5)nc3nc2OC2CCC2)n1` (single isomer, unassigned) [Example 648] is 1.9-fold lower in IC50: 0.0085 µM for the first, 0.0045 µM for the second.

`CC(C)Oc1nc2nc(C34COC(CF)(C3)C4)cn2cc1C(=O)Nc1cccn(C(F)F)c1=O` [Example 381, N-(1-(difluoromethyl)-2-oxo-1,2-dihydropyridin-3-yl)-2-(1-(fluoromethyl)-2-oxabicyclo[2.1.1]hexan-4-yl)-7-isopropoxyimidazo[1,2-a]pyrimidine-6-carboxamide] and `Cc1cnc2c(NC(=O)c3cn4cc(C56COC(CF)(C5)C6)nc4nc3OC(C)C)cnn2c1` [Example 434] are within 1.5-fold of each other in IC50: 0.0004 µM for the first, 0.0005 µM for the second.

Compared with `COc1cc2nc(C3CCOCC3)cn2cc1C(=O)Nc1cccc(CO)n1` [Example 202], `COc1cc2nc(C3CCOCC3)cn2cc1C(=O)Nc1csnc1C` [Example 108] is 4.9-fold higher in IC50: 0.0137 µM for the first, 0.0669 µM for the second. The first is the more potent here.

Compared with `CC(C)Oc1cc2nc([C@]34CC[C@](C)(C3)OC4)cn2cc1C(=O)Nc1ccn(C)n1` (single isomer, unassigned) [Example 607], `COc1nscc1NC(=O)c1cn2cc(C34CCC(C)(C3)OC4)nc2cc1OC(C)C` (stereo not drawn) [Example 513, 7-Isopropoxy-N-(3-methoxyisothiazol-4-yl)-2-(1-methyl-2-oxabicyclo[2.2.1]heptan-4-yl)imidazo[1,2-a]pyridine-6-carboxamide] is 10-fold lower in IC50: 0.0031 µM for the first, 0.0003 µM for the second. The second is the more potent here.

Compared with `CC12CC(c3cn4cc(C(=O)Nc5ccn(C(F)(F)F)n5)c(OC5CCC5)cc4n3)(CO1)C2` [Example 521, 7-Cyclobutoxy-2-(1-methyl-2-oxabicyclo[2.1.1]hexan-4-yl)-N-(1-(trifluoromethyl)-1H-pyrazol-3-yl)imidazo[1,2-a]pyridine-6-carboxamide], `Cn1cccc(NC(=O)c2cn3cc(C45COC(C)(C4)C5)nc3cc2OC2CCC2)c1=O` [Example 424, 7-Cyclobutoxy-N-(1-methyl-2-oxo-1,2-dihydropyridin-3-yl)-2-(1-methyl-2-oxabicyclo[2.1.1]hexan-4-yl)imidazo[1,2-a]pyridine-6-carboxamide] is 17-fold lower in IC50: 0.0118 µM for the first, 0.0007 µM for the second.

Compared with `CCOc1nc(C(=O)Nc2cccc(C(F)F)n2)cn2cc(C34COC(C)(C3)C4)nc12` [Example 226], `CCOc1nc(C(=O)Nc2cccc(Cl)c2F)cn2cc(C34COC(C)(C3)C4)nc12` [Example 488, N-(3-chloro-2-fluorophenyl)-8-ethoxy-2-(1-methyl-2-oxabicyclo[2.1.1]hexan-4-yl)imidazo[1,2-a]pyrazine-6-carboxamide] is 3.4-fold higher in IC50: 0.0024 µM for the first, 0.0081 µM for the second. The first is the more potent here.

Going from `CC(C)Oc1nc2nc(C3C4COCC43)cn2cc1C(=O)Nc1ccn(C(F)F)n1` (stereo not drawn) [Example 395, 2-(3-Oxabicyclo[3.1.0]hexan-6-yl)-N-(1-(difluoromethyl)-1H-pyrazol-3-yl)-7-isopropoxyimidazo[1,2-a]pyrimidine-6-carboxamide] to `CC(C)Oc1nc2nc(C34COC(C)(C3)C4)cn2cc1C(=O)Nc1cccc(OC(F)F)n1` [Example 411, N-(6-(difluoromethoxy)pyridin-2-yl)-7-isopropoxy-2-(1-methyl-2-oxabicyclo[2.1.1]hexan-4-yl)imidazo[1,2-a]pyrimidine-6-carboxamide], the IC50 falls from 0.0057 µM to 0.0008 µM (7.1-fold). The second is the more potent here.

Going from `COCc1cc2nc(C34COC(C)(C3)C4)cn2cc1C(=O)Nc1cnn2cc(C)cnc12` [Example 288, 7-(Methoxymethyl)-2-(1-methyl-2-oxabicyclo[2.1.1]hexan-4-yl)-N-(6-methylpyrazolo[1,5-a]pyrimidin-3-yl)imidazo[1,2-a]pyridine-6-carboxamide] to `Cc1cnc2c(NC(=O)c3cn4cc(C56COC(C)(C5)C6)nc4c(F)c3OC3CCC3)cnn2c1` [Example 256, 7-Cyclobutoxy-8-fluoro-2-(1-methyl-2-oxabicyclo[2.1.1]hexan-4-yl)-N-(6-methylpyrazolo[1,5-a]pyrimidin-3-yl)imidazo[1,2-a]pyridine-6-carboxamide], the IC50 falls from 1.23 µM to 0.0009 µM (1400-fold). The second is the more potent here.

Going from `COc1ncccc1NC(=O)c1cn2cc([C@]34CC[C@](C)(C3)OC4)nc2c(OC)n1` (single isomer, unassigned) [Example 586] to `CCOc1nc(C(=O)Nc2cccnc2OC)cn2cc([C@H]3CCOC3)nc12` (single isomer, unassigned) [Example 598], the IC50 rises from 0.002 µM to 0.0041 µM (2.1-fold).

Going from `COc1cccc(NC(=O)c2cn3cc(C4CC4)nc3cc2OC2CCCC2)n1` [Example 465, 7-(Cyclopentyloxy)-2-cyclopropyl-N-(6-methoxypyridin-2-yl)imidazo[1,2-a]pyridine-6-carboxamide] to `C[C@@H](Oc1cc2nc(C34COC(C)(C3)C4)cn2cc1C(=O)Nc1cccc(C(F)F)n1)C(F)(F)F` (single isomer, unassigned) [Example 618], the IC50 falls from 0.0079 µM to 0.0006 µM (13-fold). The second is the more potent here.

`CC(C)Oc1nc2nc(C34COC(C)(C3)C4)cn2cc1C(=O)Nc1cc(F)n(C)n1` [Example 360, N-(5-fluoro-1-methyl-1H-pyrazol-3-yl)-7-isopropoxy-2-(1-methyl-2-oxabicyclo[2.1.1]hexan-4-yl)imidazo[1,2-a]pyrimidine-6-carboxamide] was tested, and the IC50 was 0.0111 µM.

same assay, conditions: IRAK4 Biochemical Assay (1 mM ATP, 2 h) IC50 (μM), 1 mM ATP, 2 h, 100 pM IRAK4

Compared with `CC(C)Oc1cc2nc(C34COC(C)(C3)C4)cn2cc1C(=O)Nc1cccc(N(C)C)n1` [Example 260, N-(6-(dimethylamino)pyridin-2-yl)-7-isopropoxy-2-(1-methyl-2-oxabicyclo[2.1.1]hexan-4-yl)imidazo[1,2-a]pyridine-6-carboxamide 2,2,2-trifluoroacetate], `CC(C)Oc1cc2nc(C34COC(C)(C3)C4)cn2cc1C(=O)Nc1cccc(C2CC2)n1` [Example 296, N-(6-cyclopropylpyridin-2-yl)-7-isopropoxy-2-(1-methyl-2-oxabicyclo[2.1.1]hexan-4-yl)imidazo[1,2-a]pyridine-6-carboxamide trifluoroacetate] is 2.2-fold higher in IC50: 0.0005 µM for the first, 0.0011 µM for the second.

First: COc1ccc2ncc(NC(=O)c3cn4cc(C56COC(C)(C5)C6)nc4nc3OC(C)C)n2n1 [Example 308, 7-Isopropoxy-N-(6-methoxyimidazo[1,2-b]pyridazin-3-yl)-2-(1-methyl-2-oxabicyclo[2.1.1]hexan-4-yl)imidazo[1,2-a]pyrimidine-6-carboxamide trifluoroacetate]
Second: CC(C)Oc1nc2nc(C34COC(C)(C3)C4)cn2cc1C(=O)Nc1ccc2c(n1)CCC2 [Example 366, N-(6,7-dihydro-5H-cyclopenta[b]pyridin-2-yl)-7-isopropoxy-2-(1-methyl-2-oxabicyclo[2.1.1]hexan-4-yl)imidazo[1,2-a]pyrimidine-6-carboxamide trifluoroacetate]
The IC50 of the first is 3.2-fold lower: 0.002 µM for the first, 0.0065 µM for the second.

First: Cc1cnc2c(NC(=O)c3cn4cc(C56CC(C)(C5)OC6(C)C)nc4nc3OC(C)C)cnn2c1 [Example 311, 7-Isopropoxy-N-(6-methylpyrazolo[1,5-a]pyrimidin-3-yl)-2-(1,3,3-trimethyl-2-oxabicyclo[2.1.1]hexan-4-yl)imidazo[1,2-a]pyrimidine-6-carboxamide trifluoroacetate]
Second: O=C(Nc1cccc(C(F)F)n1)c1cn2cc(C3CC3)nc2cc1OC1CCOCC1 [Example 473, 2-Cyclopropyl-N-(6-(difluoromethyl)pyridin-2-yl)-7-((tetrahydro-2H-pyran-4-yl)oxy)imidazo[1,2-a]pyridine-6-carboxamide]
The IC50 of the first is 4.6-fold lower: 0.0014 µM for the first, 0.0064 µM for the second.
